Where two headings read alike, the source gives them in different places.
What was measured:
[1] = test system: nicotinic acetylcholine receptors (NAChR)
Description: The cells were plated and loaded with the fluorescent dye Fluo-3 and the assays were carried out substantially as described in the modified method of Example 3A except that the nicotinic receptors of the cells were activated.

[2] = target: human neuronal calcium channel α1D, α2 and β subunits (Homo sapiens, UniProt Q01668); details: 13old cells; 50 mM KCl
Description: The assays were conducted using the fully automated version of the assay, as described for analysis of calcium channels in positive control IMR32 and SHSY5Y cells. Fluorescence was measured prior to addition of KCl to the cells to record pre-reagent fluorescence, i.e., noise, fluorescence. Signal fluorescence is the maximal fluorescence recorded after addition of KCl to the cells.
The automated assays were performed as described for analysis of calcium channel activity of IMR32 and SHSY5Y cells. For each dose-dependence assay, different wells of the microtiter plate received different concentrations of the agonist or antagonist, the background fluorescence was measured, and. […] Repeated fluorescence measurements were made before and after KCl addition and the values were recorded. A total of five fluorescence readings were taken before KCl addition. […] The plate was then automatically repositioned at the fluorescence measuring position (a delay of two seconds was measured between reagent addition and the first fluorescence measurement after reagent addition) and 125 fluorescence measurements were taken and values were recorded. […]
Dose-response curves were generated from the fluorescence data. In constructing these curves, the fluorescence value recorded in the presence of each concentration of compound was plotted as the percent maximum fluorescence vs. concentration. […]

[3] = test system: voltage-dependent calcium channels
Description: (§1) SHSY5Y cells, induced for six days with 10 μM retinoic acid (Sigma), and IMR32 cells, induced for ten days with 1 mM dibutyryl cAMP (dbcAMP) and 2.5 μM bromodeoxyuridine (BrdU) (both from Boehringer-Mannheim, Indianapolis, IN) were treated with various calcium channel interactive drugs before kCl depolarization and measurement of fluorescence.

[4] = test system: voltage-dependent calcium channels; remark: listed apart in the source
Description: as §1

[5] = test system: muscarinic acetylcholine receptors (MAChRs)

human neuronal calcium channel α1D, α2 and β subunits, sequence (Q01668 whole entry): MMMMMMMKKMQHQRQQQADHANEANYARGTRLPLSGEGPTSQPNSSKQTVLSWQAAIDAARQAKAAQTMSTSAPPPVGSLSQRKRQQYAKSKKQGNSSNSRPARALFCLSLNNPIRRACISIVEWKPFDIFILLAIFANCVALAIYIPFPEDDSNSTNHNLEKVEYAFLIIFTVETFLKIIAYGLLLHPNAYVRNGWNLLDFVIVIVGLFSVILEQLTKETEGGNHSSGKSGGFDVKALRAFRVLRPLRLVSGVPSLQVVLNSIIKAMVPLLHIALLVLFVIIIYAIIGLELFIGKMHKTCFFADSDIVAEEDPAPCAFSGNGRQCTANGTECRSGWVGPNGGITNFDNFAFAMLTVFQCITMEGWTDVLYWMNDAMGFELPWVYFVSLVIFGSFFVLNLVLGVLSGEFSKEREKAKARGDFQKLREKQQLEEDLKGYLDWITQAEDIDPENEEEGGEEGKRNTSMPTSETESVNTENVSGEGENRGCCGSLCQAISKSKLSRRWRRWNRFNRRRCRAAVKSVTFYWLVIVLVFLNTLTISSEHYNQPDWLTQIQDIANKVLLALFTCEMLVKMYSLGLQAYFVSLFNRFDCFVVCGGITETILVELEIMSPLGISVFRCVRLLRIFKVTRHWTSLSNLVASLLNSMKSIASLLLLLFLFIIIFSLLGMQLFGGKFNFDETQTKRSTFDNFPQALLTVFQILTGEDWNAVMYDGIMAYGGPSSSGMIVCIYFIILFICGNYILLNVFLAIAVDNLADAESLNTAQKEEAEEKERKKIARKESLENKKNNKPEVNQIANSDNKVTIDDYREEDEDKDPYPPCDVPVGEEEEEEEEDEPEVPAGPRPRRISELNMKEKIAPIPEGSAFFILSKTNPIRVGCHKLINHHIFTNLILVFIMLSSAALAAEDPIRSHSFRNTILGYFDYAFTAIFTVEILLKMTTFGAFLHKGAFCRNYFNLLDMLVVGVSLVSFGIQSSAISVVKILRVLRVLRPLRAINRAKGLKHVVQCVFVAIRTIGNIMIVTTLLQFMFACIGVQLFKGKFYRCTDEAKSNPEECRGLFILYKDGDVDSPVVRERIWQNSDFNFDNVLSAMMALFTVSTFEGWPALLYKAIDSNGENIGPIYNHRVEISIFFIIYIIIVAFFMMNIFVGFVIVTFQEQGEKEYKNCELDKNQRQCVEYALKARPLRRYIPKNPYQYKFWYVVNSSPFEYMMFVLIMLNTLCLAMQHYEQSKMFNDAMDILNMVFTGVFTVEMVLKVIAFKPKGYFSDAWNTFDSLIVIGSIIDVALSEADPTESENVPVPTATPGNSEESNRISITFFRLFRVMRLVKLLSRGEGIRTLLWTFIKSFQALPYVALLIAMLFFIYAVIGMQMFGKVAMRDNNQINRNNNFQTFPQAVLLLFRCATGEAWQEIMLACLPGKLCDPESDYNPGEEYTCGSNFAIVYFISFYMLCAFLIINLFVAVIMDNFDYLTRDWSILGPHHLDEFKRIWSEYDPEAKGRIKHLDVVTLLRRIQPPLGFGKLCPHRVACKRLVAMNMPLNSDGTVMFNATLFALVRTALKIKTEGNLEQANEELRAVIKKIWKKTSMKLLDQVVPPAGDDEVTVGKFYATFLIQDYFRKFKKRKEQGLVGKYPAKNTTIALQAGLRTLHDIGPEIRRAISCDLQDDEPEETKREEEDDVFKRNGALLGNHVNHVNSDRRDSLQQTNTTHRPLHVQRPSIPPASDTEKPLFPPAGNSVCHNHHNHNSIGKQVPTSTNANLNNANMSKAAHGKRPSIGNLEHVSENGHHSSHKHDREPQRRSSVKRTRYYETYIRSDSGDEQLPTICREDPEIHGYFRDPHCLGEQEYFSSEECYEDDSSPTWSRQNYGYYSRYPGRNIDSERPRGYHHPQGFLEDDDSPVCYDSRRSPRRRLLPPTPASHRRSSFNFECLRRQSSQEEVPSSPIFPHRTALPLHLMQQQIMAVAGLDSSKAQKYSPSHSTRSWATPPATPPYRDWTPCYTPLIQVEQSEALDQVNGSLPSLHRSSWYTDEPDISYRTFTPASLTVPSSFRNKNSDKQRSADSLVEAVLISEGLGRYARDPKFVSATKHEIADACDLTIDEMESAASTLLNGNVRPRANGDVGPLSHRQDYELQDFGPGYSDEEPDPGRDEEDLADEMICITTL

D-tubocurarine [DTC]
Fluorescence S/N ratio [1]: 1.0

omega-CgTx
Inhibition of the KCl-induced fluorescence increase (in words) [2]: did not completely inhibit

KCl [KC1]
Fluorescence Signal to Noise Ratio ([3]; SHSY5Y (retinoic acid induced), 50 mM KCl alone): 1.9
Fluorescence Signal to Noise Ratio ([4]; IMR32 (dbcAMP/BrdU induced), 50 mM KCl alone): 2.3

Bay K 8644 [BayK 8644]
Fluorescence Signal to Noise Ratio ([3]; SHSY5Y, 50 mM KCl and 1 μM compound): 2.7
Fluorescence Signal to Noise Ratio ([4]; IMR32, 50 mM KCl and 1 μM compound): 2.5
Concentration at which potentiation of the fluorescence response to KCl was maximal [2]: 100 nM

CN1CCCC1c1cccnc1 (stereo not shown) [nicotine]
Fluorescence S/N ratio ([1]; IMR32 cells, 200 μM agonist alone, Equation 2): 2.3

C[N+](C)(C)CCCCCC[N+](C)(C)C [hexamethonium]
Fluorescence S/N ratio [1]: 1.0

CNC1(C)C2CCC(C2)C1(C)C (stereo not shown) [mecamylamine]
Fluorescence S/N ratio [1]: 1.0

CN1[C@@H]2C[C@@H](OC(=O)[C@H](CO)c3ccccc3)C[C@H]1[C@@H]1O[C@@H]12 [scopolamine]
Fluorescence S/N ratio [5]: 1.0

cadmium
Fluorescence Signal to Noise Ratio ([3]; SHSY5Y, 50 mM KCl and 200 μM compound): 1.0
Fluorescence Signal to Noise Ratio ([4]; IMR32, 50 mM KCl and 200 μM compound): 1.0

Source: US6372183B1 (priority 1991, dated 2002)
